≈ marks a conversion by molar mass, not a printed value.
Columns and labels:
Laodelphax striatellus [1] = experiment: Insecticidal activity against adult Laodelphax striatella (small brown planthopper) at 0.0005 ug topically applied measured after 3 hr; type: functional
Laodelphax striatellus [2] = experiment: Insecticidal activity against adult Laodelphax striatella (small brown planthopper) at 0.0005 ug topically applied measured after 24 hr; type: functional
[3] = Displacement of [3H]alpha-bungarotoxin from nicotinic acetylcholine receptor in Apis mellifera (honey bee) head membrane
Laodelphax striatellus [4] = experiment: Insecticidal activity against larvae of Laodelphax striatella (small brown planthopper) fed with compound solution dipped rice seedling measured after 5 days by test tube method; type: functional; conditions: 120 h
Myzus persicae = experiment: Insecticidal activity against larvae of Myzus persicae (green peach aphid) infested eggplant petiole treated with compound solution measured after 5 days; type: functional; conditions: 120 h
[5] = Acute toxicity in po dosed Mus musculus ICR (mouse) assessed as mortality measured after 14 days; type: organism-based; conditions: in vivo
Laodelphax striatellus [6] = experiment: Insecticidal activity against Laodelphax striatella (small brown planthopper) at 0.0005 ug topically applied measured after 72 hr; type: functional
Laodelphax striatellus [7] = experiment: Insecticidal activity against Laodelphax striatella (small brown planthopper) at 3.1 ppm; type: functional
Laodelphax striatellus [8] = experiment: Insecticidal activity against Laodelphax striatella (small brown planthopper) at 12.5 ppm in presence of triphenyl phosphate; type: functional
Laodelphax striatellus [9] = experiment: Insecticidal activity against Laodelphax striatella (small brown planthopper) at 3.1 ppm in presence of triphenyl phosphate; type: functional
Laodelphax striatellus [10] = experiment: Insecticidal activity against Laodelphax striatella (small brown planthopper) at 3.1 ppm in presence of piperonyl butoxide; type: functional
Laodelphax striatellus [11] = experiment: Insecticidal activity against Laodelphax striatella (small brown planthopper) at 3.1 ppm in presence of diethyl maleate; type: functional
Laodelphax striatellus [12] = experiment: Insecticidal activity against Laodelphax striatella (small brown planthopper) at 12.5 ppm in presence of piperonyl butoxide; type: functional
Laodelphax striatellus [13] = experiment: Insecticidal activity against Laodelphax striatella (small brown planthopper) at 12.5 ppm; type: functional
Laodelphax striatellus [14] = experiment: Insecticidal activity against Laodelphax striatella (small brown planthopper) at 12.5 ppm in presence of diethyl maleate; type: functional
Laodelphax striatellus [15] = experiment: Insecticidal activity against Laodelphax striatella (small brown planthopper) at 0.0005 ug topically applied measured after 48 hr; type: functional

Compound	LC50 (Laodelphax striatellus [4])	LC50 (Myzus persicae)	other results
O=[N+]([O-])/C=C1\NCCN1Cc1ccc(Cl)nc1	0.3 µg/mL (≈ 1.18 µM)	0.09 µg/mL (≈ 0.353 µM)	mortality (Laodelphax striatellus [1]): 70%; mortality (Laodelphax striatellus [2]): 100%; IC50 [3]: 0.11 µM; LD50 at 336 h [5]: < 30 mg/kg
C[Si](C)(CSC/C(=C1/NCCN1Cc1ccc(Cl)nc1)[N+](=O)[O-])c1ccccc1	0.1 µg/mL (≈ 0.223 µM)	0.25 µg/mL (≈ 0.557 µM)	
O=C(SC/C(=C1/NCCN1Cc1ccc(Cl)nc1)[N+](=O)[O-])c1ccccc1	6.3 µg/mL (≈ 15.6 µM)	1.2 µg/mL (≈ 2.96 µM)	
CC(SC/C(=C1/NCCN1Cc1ccc(Cl)nc1)[N+](=O)[O-])c1ccc(Cl)cc1 (stereo not drawn)	1 µg/mL (≈ 2.28 µM)	0.2 µg/mL (≈ 0.455 µM)	
O=[N+]([O-])/C(CSCc1ccc(Cl)cc1)=C1\NCCN1Cc1ccc(Cl)nc1	0.14 µg/mL (≈ 0.329 µM)	0.8 µg/mL (≈ 1.88 µM)	
O=[N+]([O-])/C(CSCc1ccccc1)=C1\NCCN1Cc1ccc(Cl)nc1	0.36 µg/mL (≈ 0.921 µM)	0.11 µg/mL (≈ 0.281 µM)	
CCOC(=O)CSC/C(=C1/NCCN1Cc1ccc(Cl)nc1)[N+](=O)[O-]	0.3 µg/mL (≈ 0.775 µM)	0.1 µg/mL (≈ 0.258 µM)	
O=[N+]([O-])/C(CSc1ccccc1)=C1\NCCN1Cc1ccc(Cl)nc1	0.11 µg/mL (≈ 0.292 µM)	0.34 µg/mL (≈ 0.902 µM)	
O=[N+]([O-])/C(CSCCCF)=C1\NCCN1Cc1ccc(Cl)nc1	0.14 µg/mL (≈ 0.388 µM)	0.2 µg/mL (≈ 0.554 µM)	
CC#CCSC/C(=C1/NCCN1Cc1ccc(Cl)nc1)[N+](=O)[O-]	0.3 µg/mL (≈ 0.85 µM)	0.25 µg/mL (≈ 0.709 µM)	
C=C(C)CSC/C(=C1/NCCN1Cc1ccc(Cl)nc1)[N+](=O)[O-]	< 0.05 µg/mL	0.15 µg/mL (≈ 0.423 µM)	
C#CCSC/C(=C1/NCCN1Cc1ccc(Cl)nc1)[N+](=O)[O-]	< 0.05 µg/mL	0.22 µg/mL (≈ 0.649 µM)	
C=CCSC/C(=C1/NCCN1Cc1ccc(Cl)nc1)[N+](=O)[O-]	0.14 µg/mL (≈ 0.411 µM)	0.1 µg/mL (≈ 0.293 µM)	mortality (Laodelphax striatellus [6]): 100%; mortality (Laodelphax striatellus [1]): 0%; mortality (Laodelphax striatellus [2]): 30%; mortality at 3.1 ppm (Laodelphax striatellus [7]): 100%; IC50 [3]: 20.4 µM; mortality at 12.5 ppm (Laodelphax striatellus [8]): 100%; mortality at 3.1 ppm (Laodelphax striatellus [9]): 100%; mortality at 3.1 ppm (Laodelphax striatellus [10]): 100%; mortality at 3.1 ppm (Laodelphax striatellus [11]): 30%; mortality at 12.5 ppm (Laodelphax striatellus [12]): 100%; LD50 at 336 h [5]: > 1000 mg/kg; mortality at 12.5 ppm (Laodelphax striatellus [13]): 100%; mortality at 12.5 ppm (Laodelphax striatellus [14]): 80%; mortality (Laodelphax striatellus [15]): 80%
CC(C)(C)SC/C(=C1/NCCN1Cc1ccc(Cl)nc1)[N+](=O)[O-]	0.43 µg/mL (≈ 1.2 µM)	0.2 µg/mL (≈ 0.56 µM)	
CCSC/C(=C1/NCCN1Cc1ccc(Cl)nc1)[N+](=O)[O-]	0.41 µg/mL (≈ 1.25 µM)	0.18 µg/mL (≈ 0.547 µM)	

Reference: ChEMBL document CHEMBL3045198, “Insecticidal Activity and Selective Toxicity of Chloronicotinyl Compounds Having Thiomethyl Groups” (J Pestic Sci, 2000)
